Measurements taken from patent US8048862B2, “Macrocyclic inhibitors of hepatitis C virus replication” (priority 2008, dated 2011).

The compounds below were run against NS3/NS4 complexes (Hepatitis C virus genotype 1a, UniProt P27958) (assay: NS3/NS4 inhibition activity (IC50)). Details: Table 2, read-out: IC50.
Format: biochemical
Excerpt: NS3-NS4 inhibition activity can be determined using known assay methods. For example, NS3/NS4 complexes may be formed and inhibitory concentrations of test compounds determined as described in U.S. Patent Application Publication Number 2007/0054842 paragraph numbers 1497-1509, which is incorporated herein by reference in its entirety. Similarly, hepatitis C replicon EC50 may be determined using known assay methods such as described in U.S. Patent Application Publication Number 2007/0054842 paragraph numbers 1510-1515. Assays may be conducted at ambient temperature (23° C.) in assay buffer containing 50 mM Tris-HCl, pH 7.5, 15% glycerol, 0.6 mM Lauryldimethylamine Oxide (LDAO), 25 μM NS4A peptide, and 10 mM Dithiothreitol (DTT).

NS3/NS4 complexes, sequence (P27958 1027-1657): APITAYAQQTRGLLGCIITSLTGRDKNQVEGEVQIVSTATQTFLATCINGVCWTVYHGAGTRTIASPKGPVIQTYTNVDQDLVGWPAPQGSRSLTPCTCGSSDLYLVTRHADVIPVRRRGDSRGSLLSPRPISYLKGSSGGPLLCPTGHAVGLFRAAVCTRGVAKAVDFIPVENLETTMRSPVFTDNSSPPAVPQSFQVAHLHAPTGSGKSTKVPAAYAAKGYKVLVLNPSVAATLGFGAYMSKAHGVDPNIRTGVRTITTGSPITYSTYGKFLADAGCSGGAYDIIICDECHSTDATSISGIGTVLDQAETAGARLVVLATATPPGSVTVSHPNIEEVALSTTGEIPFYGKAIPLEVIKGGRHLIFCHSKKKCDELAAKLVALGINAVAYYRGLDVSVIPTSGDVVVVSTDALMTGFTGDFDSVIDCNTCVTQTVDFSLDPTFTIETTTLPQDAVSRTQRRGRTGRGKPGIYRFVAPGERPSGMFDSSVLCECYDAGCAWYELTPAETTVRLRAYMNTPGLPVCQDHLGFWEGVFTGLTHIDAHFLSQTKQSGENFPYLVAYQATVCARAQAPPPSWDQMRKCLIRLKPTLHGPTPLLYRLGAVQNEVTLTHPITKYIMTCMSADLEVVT
NS3/NS4 complexes, sequence (P27958 1658-1711): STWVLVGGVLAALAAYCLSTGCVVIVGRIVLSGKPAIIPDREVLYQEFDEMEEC

Row | Structure (SMILES) | IC50 [nM]
1 | O=C1N[C@]2(C(=O)O)C[C@H]2/C=C\CCCCC[C@H](Nc2cccc(C(F)(F)F)c2)C(=O)N2C[C@H](Oc3nc4ccccc4s3)C[C@@H]12 [Compound 110] | 10 to 75
2 | CC(C)(C)c1csc(N[C@H]2CCCCC/C=C\[C@@H]3C[C@@]3(C(=O)O)NC(=O)[C@@H]3C[C@@H](Oc4nc5ccccc5s4)CN3C2=O)n1 [Compound 119] | 10 to 75
3 | O=C1N[C@]2(C(=O)NS(=O)(=O)C3CC3)C[C@H]2/C=C\CCCCC[C@H](Nc2ccccc2)C(=O)N2C[C@H](Oc3nc4ccccc4s3)C[C@@H]12 [Compound 157] | < 10
4 | COc1ccc2c(O[C@@H]3C[C@H]4C(=O)N[C@]5(C(=O)NS(=O)(=O)C6CC6)C[C@H]5/C=C\CCCCC[C@H](Nc5ccccc5)C(=O)N4C3)cc(-c3ccccc3)nc2c1 [Compound 164] | < 10
5 | O=C1N[C@]2(C(=O)NS(=O)(=O)C3CC3)C[C@H]2/C=C\CCCCC[C@H](NCc2ccccc2)C(=O)N2C[C@H](Oc3nc4ccccc4s3)C[C@@H]12 [Compound 197] | < 10
6 | CC1(S(=O)(=O)NC(=O)[C@@]23C[C@H]2/C=C\CCCCC[C@H](Nc2ccccc2)C(=O)N2C[C@H](Oc4nc5ccccc5s4)C[C@H]2C(=O)N3)CC1 [Compound 213] | < 10
7 | CC1(S(=O)(=O)NC(=O)[C@@]23C[C@H]2/C=C\CCCCC[C@H](Nc2ccccc2)C(=O)N2C[C@H](Oc4nc5ccc(Br)cc5s4)C[C@H]2C(=O)N3)CC1 [Compound 214] | < 10
8 | CC1(S(=O)(=O)NC(=O)[C@@]23C[C@H]2/C=C\CCCCC[C@H](Nc2ccccc2)C(=O)N2C[C@H](Oc4nc5ccc(Cl)cc5s4)C[C@H]2C(=O)N3)CC1 [Compound 217] | < 10
9 | Cc1ccc2nc(O[C@@H]3C[C@H]4C(=O)N[C@]5(C(=O)NS(=O)(=O)C6(C)CC6)C[C@H]5/C=C\CCCCC[C@H](Nc5ccccc5)C(=O)N4C3)sc2c1 [Compound 218] | < 10
10 | COc1ccc2c(O[C@@H]3C[C@H]4C(=O)N[C@]5(C(=O)NS(=O)(=O)C6(C)CC6)C[C@H]5/C=C\CCCCC[C@H](Nc5ccccc5)C(=O)N4C3)cc(-c3ccccc3)nc2c1 [Compound 220] | < 10
11 | CC1(S(=O)(=O)NC(=O)[C@@]23C[C@H]2/C=C\CCCCC[C@H](Nc2ccccc2)C(=O)N2C[C@H](Oc4nccc5ccccc45)C[C@H]2C(=O)N3)CC1 [Compound 221] | < 10
12 | CC1(S(=O)(=O)NC(=O)[C@@]23C[C@H]2/C=C\CCCCC[C@H](Nc2cccc(C(F)(F)F)c2)C(=O)N2C[C@H](Oc4nc5ccccc5s4)C[C@H]2C(=O)N3)CC1 [Compound 222] | < 10
13 | CC1(S(=O)(=O)NC(=O)[C@@]23C[C@H]2/C=C\CCCCC[C@H](Nc2cccc(C(F)(F)F)c2)C(=O)N2C[C@H](Oc4nc5ccc(Br)cc5s4)C[C@H]2C(=O)N3)CC1 [Compound 223] | < 10
14 | CC1(S(=O)(=O)NC(=O)[C@@]23C[C@H]2/C=C\CCCCC[C@H](Nc2cccc(C(F)(F)F)c2)C(=O)N2C[C@H](Oc4nc5ccc(Cl)cc5s4)C[C@H]2C(=O)N3)CC1 [Compound 226] | < 10
15 | Cc1ccc2nc(O[C@@H]3C[C@H]4C(=O)N[C@]5(C(=O)NS(=O)(=O)C6(C)CC6)C[C@H]5/C=C\CCCCC[C@H](Nc5cccc(C(F)(F)F)c5)C(=O)N4C3)sc2c1 [Compound 227] | < 10
16 | COc1ccc2c(O[C@@H]3C[C@H]4C(=O)N[C@]5(C(=O)NS(=O)(=O)C6(C)CC6)C[C@H]5/C=C\CCCCC[C@H](Nc5cccc(C(F)(F)F)c5)C(=O)N4C3)cc(-c3ccccc3)nc2c1 [Compound 229] | < 10
17 | CC1(S(=O)(=O)NC(=O)[C@@]23C[C@H]2/C=C\CCCCC[C@H](Nc2cccc(C(F)(F)F)c2)C(=O)N2C[C@H](Oc4nccc5ccccc45)C[C@H]2C(=O)N3)CC1 [Compound 230] | < 10
18 | CC(C)(C)c1csc(N[C@H]2CCCCC/C=C\[C@@H]3C[C@@]3(C(=O)NS(=O)(=O)C3(C)CC3)NC(=O)[C@@H]3C[C@@H](Oc4nc5ccccc5s4)CN3C2=O)n1 [Compound 231] | < 10
19 | CC1(S(=O)(=O)NC(=O)[C@@]23C[C@H]2/C=C\CCCCC[C@H](Nc2cccc(F)c2)C(=O)N2C[C@H](Oc4nc5ccccc5s4)C[C@H]2C(=O)N3)CC1 [Compound 235] | < 10
20 | COc1ccc2c(O[C@@H]3C[C@H]4C(=O)N[C@]5(C(=O)NS(=O)(=O)C6(C)CC6)C[C@H]5/C=C\CCCCC[C@H](Nc5cccc(F)c5)C(=O)N4C3)cc(-c3ccccc3)nc2c1 [Compound 242] | < 10

Each compound was assayed on hepatitis C replicon (assay: hepatitis C replicon EC50). Details: Hepatitis C virus; Table 2; hepatitis C replicon; read-out: EC50.
Format: cell-based
Excerpt: NS3-NS4 inhibition activity can be determined using known assay methods.

Row | Structure (SMILES) | EC50 [nM]
21 | O=C1N[C@]2(C(=O)O)C[C@H]2/C=C\CCCCC[C@H](Nc2cccc(C(F)(F)F)c2)C(=O)N2C[C@H](Oc3nc4ccccc4s3)C[C@@H]12 [Compound 110] | > 500
22 | CC(C)(C)c1csc(N[C@H]2CCCCC/C=C\[C@@H]3C[C@@]3(C(=O)O)NC(=O)[C@@H]3C[C@@H](Oc4nc5ccccc5s4)CN3C2=O)n1 [Compound 119] | > 500
23 | O=C1N[C@]2(C(=O)NS(=O)(=O)C3CC3)C[C@H]2/C=C\CCCCC[C@H](Nc2ccccc2)C(=O)N2C[C@H](Oc3nc4ccccc4s3)C[C@@H]12 [Compound 157] | 10 to 75
24 | COc1ccc2c(O[C@@H]3C[C@H]4C(=O)N[C@]5(C(=O)NS(=O)(=O)C6CC6)C[C@H]5/C=C\CCCCC[C@H](Nc5ccccc5)C(=O)N4C3)cc(-c3ccccc3)nc2c1 [Compound 164] | < 10
25 | O=C1N[C@]2(C(=O)NS(=O)(=O)C3CC3)C[C@H]2/C=C\CCCCC[C@H](NCc2ccccc2)C(=O)N2C[C@H](Oc3nc4ccccc4s3)C[C@@H]12 [Compound 197] | 10 to 75
26 | CC1(S(=O)(=O)NC(=O)[C@@]23C[C@H]2/C=C\CCCCC[C@H](Nc2ccccc2)C(=O)N2C[C@H](Oc4nc5ccccc5s4)C[C@H]2C(=O)N3)CC1 [Compound 213] | 10 to 75
27 | CC1(S(=O)(=O)NC(=O)[C@@]23C[C@H]2/C=C\CCCCC[C@H](Nc2ccccc2)C(=O)N2C[C@H](Oc4nc5ccc(Br)cc5s4)C[C@H]2C(=O)N3)CC1 [Compound 214] | 75 to 500
28 | CC1(S(=O)(=O)NC(=O)[C@@]23C[C@H]2/C=C\CCCCC[C@H](Nc2ccccc2)C(=O)N2C[C@H](Oc4nc5ccc(Cl)cc5s4)C[C@H]2C(=O)N3)CC1 [Compound 217] | 75 to 500
29 | Cc1ccc2nc(O[C@@H]3C[C@H]4C(=O)N[C@]5(C(=O)NS(=O)(=O)C6(C)CC6)C[C@H]5/C=C\CCCCC[C@H](Nc5ccccc5)C(=O)N4C3)sc2c1 [Compound 218] | 75 to 500
30 | COc1ccc2c(O[C@@H]3C[C@H]4C(=O)N[C@]5(C(=O)NS(=O)(=O)C6(C)CC6)C[C@H]5/C=C\CCCCC[C@H](Nc5ccccc5)C(=O)N4C3)cc(-c3ccccc3)nc2c1 [Compound 220] | < 10
31 | CC1(S(=O)(=O)NC(=O)[C@@]23C[C@H]2/C=C\CCCCC[C@H](Nc2ccccc2)C(=O)N2C[C@H](Oc4nccc5ccccc45)C[C@H]2C(=O)N3)CC1 [Compound 221] | 10 to 75
32 | CC1(S(=O)(=O)NC(=O)[C@@]23C[C@H]2/C=C\CCCCC[C@H](Nc2cccc(C(F)(F)F)c2)C(=O)N2C[C@H](Oc4nc5ccccc5s4)C[C@H]2C(=O)N3)CC1 [Compound 222] | 75 to 500
33 | CC1(S(=O)(=O)NC(=O)[C@@]23C[C@H]2/C=C\CCCCC[C@H](Nc2cccc(C(F)(F)F)c2)C(=O)N2C[C@H](Oc4nc5ccc(Br)cc5s4)C[C@H]2C(=O)N3)CC1 [Compound 223] | 75 to 500
34 | CC1(S(=O)(=O)NC(=O)[C@@]23C[C@H]2/C=C\CCCCC[C@H](Nc2cccc(C(F)(F)F)c2)C(=O)N2C[C@H](Oc4nc5ccc(Cl)cc5s4)C[C@H]2C(=O)N3)CC1 [Compound 226] | 75 to 500
35 | Cc1ccc2nc(O[C@@H]3C[C@H]4C(=O)N[C@]5(C(=O)NS(=O)(=O)C6(C)CC6)C[C@H]5/C=C\CCCCC[C@H](Nc5cccc(C(F)(F)F)c5)C(=O)N4C3)sc2c1 [Compound 227] | 75 to 500
36 | COc1ccc2c(O[C@@H]3C[C@H]4C(=O)N[C@]5(C(=O)NS(=O)(=O)C6(C)CC6)C[C@H]5/C=C\CCCCC[C@H](Nc5cccc(C(F)(F)F)c5)C(=O)N4C3)cc(-c3ccccc3)nc2c1 [Compound 229] | < 10
37 | CC1(S(=O)(=O)NC(=O)[C@@]23C[C@H]2/C=C\CCCCC[C@H](Nc2cccc(C(F)(F)F)c2)C(=O)N2C[C@H](Oc4nccc5ccccc45)C[C@H]2C(=O)N3)CC1 [Compound 230] | < 10
38 | CC(C)(C)c1csc(N[C@H]2CCCCC/C=C\[C@@H]3C[C@@]3(C(=O)NS(=O)(=O)C3(C)CC3)NC(=O)[C@@H]3C[C@@H](Oc4nc5ccccc5s4)CN3C2=O)n1 [Compound 231] | 10 to 75
39 | CC1(S(=O)(=O)NC(=O)[C@@]23C[C@H]2/C=C\CCCCC[C@H](Nc2cccc(F)c2)C(=O)N2C[C@H](Oc4nc5ccccc5s4)C[C@H]2C(=O)N3)CC1 [Compound 235] | 10 to 75
40 | COc1ccc2c(O[C@@H]3C[C@H]4C(=O)N[C@]5(C(=O)NS(=O)(=O)C6(C)CC6)C[C@H]5/C=C\CCCCC[C@H](Nc5cccc(F)c5)C(=O)N4C3)cc(-c3ccccc3)nc2c1 [Compound 242] | < 10
